From US5516889A, “Synthetic thrombin receptor peptides” (University Technologies International, Inc., priority 1995, dated 1996)
Residues, ends and D or L forms follow the SMILES beside them.

Experiments:
[1] = system: thrombin receptor (LM and RA assays); test: Activity of cyclic TRPs in the bioassays previously described (assay not specified); format: cell-based; settings: concentration tested 9 to 200 μM, differs per compound
Procedure: (§1) The guinea pig gastric longitudinal muscle (GLM) strips and the rat thoracic aorta (RA) ring preparations were isolated as previously described 14, 15. In brief, gastric LM strips (3×10 mm), obtained from male albino Hartley strain guinea pigs were equilibrated for about 1.5 h at 37° (in an aerated (95% O2 /5% CO2) Krebs-Henseleit buffer (3 mL) of the following composition (in mM): NaCl, 118; KCl, 4.7; CaCl2, 2.5; MgCl2, 1.2; NaHCO3, 25; KH2 PO4, 1.2; and glucose, 10. The pH was maintained at 7.4. Rat gastric LM strips (3×10 mm) were obtained, as for the GLM strips, from male albino Sprague Dawley animals (250-300 g). The stomach, opened along the greater curvature, was stripped free of all mucosal tissue under microscopic visualization and longitudinal tissue strips were cut exactly at right angles to the visible circular muscle bundles. Tissue strips were pre-equilibrated in the buffer described above. Each tissue was challenged twice each in succession at timed intervals with 50 nM carbachol (20 min intervals), 1 μM angiotensin-II (1 h intervals) and 95 μM (60 μg/mL) receptor pentapeptide (P5, SFLLR, SEQ ID NO: 2) (25 min intervals for GLM; 30-35 min for RLM); tissues were washed at 10 and 15 min after the additions of agonists. Contractions were monitored isometrically using Statham force-displacement transducers. […]
Thoracic RA rings (2 mm×3 mm), obtained from male albino Sprague Dawley rats, were equilibrated (about 1 h, 37° ) in the same organ bath buffer as was used for the LM tissue, and tension (baseline 1.0 g) was monitored isometrically using either Statham or Grass force-displacement transducers. […] Therefore, to construct concentration-effect curves and to normalize data between individual preparations, the relaxation responses to P5 and to the other TRPs were expressed as a percentage of the relaxation caused by 215 μM (137 μg/mL) of P5 (% P5215). For purposes of comparison, the same stock solutions of an individual peptide were evaluated, relative to P5, in both the RA and LM bioassays. […]
Cyclic TRPs were evaluated using the bioassays previously described.

[2] = target: T1, thrombin receptor (guinea pig gastric longitudinal muscle strips) (Cavia porcellus, UniProt A0A286XH07); settings: for Relative potency (REC) GLM: average concentration ratio relative to P5 causing equal contractile response (REC = EC TRP ÷ EC P5)
T1 sequence (A0A286XH07 24-426): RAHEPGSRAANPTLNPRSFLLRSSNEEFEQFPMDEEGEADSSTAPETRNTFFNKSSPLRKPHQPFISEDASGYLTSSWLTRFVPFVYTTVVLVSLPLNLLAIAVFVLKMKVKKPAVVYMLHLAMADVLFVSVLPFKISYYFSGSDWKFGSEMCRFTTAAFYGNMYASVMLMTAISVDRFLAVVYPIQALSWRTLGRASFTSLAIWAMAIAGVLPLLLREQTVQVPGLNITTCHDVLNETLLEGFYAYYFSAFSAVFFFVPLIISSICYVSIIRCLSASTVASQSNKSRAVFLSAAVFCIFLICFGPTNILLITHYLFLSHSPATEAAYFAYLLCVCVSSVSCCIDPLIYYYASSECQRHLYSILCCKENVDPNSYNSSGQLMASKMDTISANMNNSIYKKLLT
Procedure: (§2) The guinea pig gastric longitudinal muscle (GLM) strips and the rat thoracic aorta (RA) ring preparations were isolated as previously described 14, 15. In brief, gastric LM strips (3×10 mm), obtained from male albino Hartley strain guinea pigs were equilibrated for about 1.5 h at 37° (in an aerated (95% O2 /5% CO2) Krebs-Henseleit buffer (3 mL) of the following composition (in mM): NaCl, 118; KCl, 4.7; CaCl2, 2.5; MgCl2, 1.2; NaHCO3, 25; KH2 PO4, 1.2; and glucose, 10. The pH was maintained at 7.4. Rat gastric LM strips (3×10 mm) were obtained, as for the GLM strips, from male albino Sprague Dawley animals (250-300 g). The stomach, opened along the greater curvature, was stripped free of all mucosal tissue under microscopic visualization and longitudinal tissue strips were cut exactly at right angles to the visible circular muscle bundles. Tissue strips were pre-equilibrated in the buffer described above. Each tissue was challenged twice each in succession at timed intervals with 50 nM carbachol (20 min intervals), 1 μM angiotensin-II (1 h intervals) and 95 μM (60 μg/mL) receptor pentapeptide (P5, SFLLR, SEQ ID NO: 2) (25 min intervals for GLM; 30-35 min for RLM); tissues were washed at 10 and 15 min after the additions of agonists. Contractions were monitored isometrically using Statham force-displacement transducers. Only tissues responding well to all three agonists were used further for the evaluation of the biological activities of P5 and other peptide agonists.

[3] = target: T2, thrombin receptor (rat gastric longitudinal muscle strips) (Rattus norvegicus, UniProt P26824); test: Rat gastric longitudinal muscle (RLM) strip contractile assay; format: cell-based
T2 construct: Rat gastric LM strips (3×10 mm) were obtained; from tissue; host or cells: rat (Sprague Dawley) gastric longitudinal muscle strips
T2 sequence (P26824 22-432): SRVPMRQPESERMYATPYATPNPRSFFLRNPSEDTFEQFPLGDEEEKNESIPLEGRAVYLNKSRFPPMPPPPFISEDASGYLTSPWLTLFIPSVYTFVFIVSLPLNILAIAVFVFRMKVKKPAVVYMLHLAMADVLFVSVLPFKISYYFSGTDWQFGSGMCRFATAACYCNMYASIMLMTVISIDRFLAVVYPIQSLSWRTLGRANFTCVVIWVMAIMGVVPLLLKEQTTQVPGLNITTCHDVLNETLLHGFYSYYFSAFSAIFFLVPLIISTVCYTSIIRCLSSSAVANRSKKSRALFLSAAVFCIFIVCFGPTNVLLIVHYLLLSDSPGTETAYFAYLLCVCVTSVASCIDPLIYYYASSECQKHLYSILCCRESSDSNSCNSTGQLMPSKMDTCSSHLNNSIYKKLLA
From the text: We obtained an evaluation of the potencies of the various TRPs, relative to P5, by using the linear portions of the concentration-effect curves, so as to calculate for several response levels the average ratio of concentrations (REC) of an individual TRP, relative to concentration of P5 that caused the same contractile response (i.e. REC =ECTRP .div.ECPS). […] In the RA assay, a similar approach to the estimate of relative potencies (REC S) was used, even though all agonists, except for P5--OCH3, appeared to cause equivalent maximal relaxation (FIG. 2, lower).
as §2, with “peptide agonists. For the GLM and RLM assays, concentration-effect curves for all peptides were constructed by expressing the response of each agonist as a percentage (% P595) relative to the contraction caused by 95 μM (60 μg/mL) P5 (0.9±0.1 g tension: mean ±S.E.M. for n=12 in the GLM; 1.6±0.9 g tension: mean ±S.E.M. for n=36 in the RLM).” for “peptide agonists.”
Weighed peptide samples were routinely dissolved in 50 mM phosphate buffer, pH 7.4, to yield stock solutions, from which volumes of up to 0.2 mL were added directly to the organ bath; the concentrations of all stock solutions used were verified by quantitative amino acid analysis of aliquots. Pr-P4 and Pr-P4--NH2 were dissolved in 40 mM phosphate buffer, pH 7.4, containing 20% v/v absolute ethanol (i.e. 8 Vol of the above 50 mM phosphate buffer +2 Vol. ethanol). Control aliquots of the ethanol-containing phosphate buffer alone had no effect on either of the bioassay systems. Acetylcholine, carbachol, indomethacin, noradrenaline and angiotensin-II and thrombin (human, 3000 to 4000 U/mg; 1 U/mL.perspectiveto.10 nM) were from Sigma (St. Louis, Mo.); genistein (GS) was from ICN Biochemicals, Costa Mesa, Calif. Tyrphostin (TP) (RG 50864, also designated AG213) was obtained through the courtesy of Dr. R. R. Swillo, Rhone-Poulenc Rorer (Collegeville, Pa). […] Indomethacin was dissolved in ethanol, such that the final ethanol concentration in the organ bath was at or lower than 0.01% v/v; this concentration of ethanol alone had no effect on the bioassay systems.

[4] = HPLC analysis of peptide recovered from RLM and RA organ bath solution; format: in vitro ADME, rat; settings: just after peak of tissue response (5-10 min)
Procedure: As illustrated in FIG. 4 (lanes C and D), the organ bath solution withdrawn from either a RLM or RA assay (30-60 μg/mL P5 or 47.5 to 95 μM), just after the peak of tissue response, was subjected to analysis by HPLC and compared with a standard solution of P5 made immediately before HPLC analysis either in buffer alone or in buffer that had been exposed to tissue under the conditions of a bioassay. […] In FIG. 4, the peptide degradation products would have been eluted at retention times earlier than those of either P5 (17.33 min) or P5--NH2 (16.83 min).

[5] = system: thrombin receptor (rat thoracic aorta rings, intact endothelium); settings: for Relative potency (REC) RA: average concentration ratio relative to P5 causing equal relaxation response (REC = EC TRP ÷ EC P5)
Procedure: Thoracic RA rings (2 mm×3 mm), obtained from male albino Sprague Dawley rats, were equilibrated (about 1 h, 37° ) in the same organ bath buffer as was used for the LM tissue, and tension (baseline 1.0 g) was monitored isometrically using either Statham or Grass force-displacement transducers. The presence of an intact endothelium was ascertained by monitoring a relaxation response to acetylcholine (ACh, 1 μM) in a preparation that was submaximally (EC75) contracted by 0.1 μM noradrenaline (NA) in the presence of 0.1 mM ascorbic acid (to preserve the catecholamine). Only tissues yielding a relaxation concentration-response curve between 0.01 and 10 μM acetylcholine (maximal relaxation of 70 to 90%, relative to the tension developed by 0.1 μM NA) were used for the further evaluation of the receptor-derived peptides. The assay of TRP responsiveness was done (e.g. see FIG. 1) on tissues that were precontacted with 0.1 μM NA at 30 min time intervals. Tissues were washed approx. 5 min after the application of TRPs. […] For purposes of comparison, the same stock solutions of an individual peptide were evaluated, relative to P5, in both the RA and LM bioassays. When possible, both assays were done simultaneously on the same day.
Weighed peptide samples were routinely dissolved in 50 mM phosphate buffer, pH 7.4, to yield stock solutions, from which volumes of up to 0.2 mL were added directly to the organ bath; the concentrations of all stock solutions used were verified by quantitative amino acid analysis of aliquots. Pr-P4 and Pr-P4--NH2 were dissolved in 40 mM phosphate buffer, pH 7.4, containing 20% v/v absolute ethanol (i.e. 8 Vol of the above 50 mM phosphate buffer +2 Vol. ethanol). […] Indomethacin was dissolved in ethanol, such that the final ethanol concentration in the organ bath was at or lower than 0.01% v/v; this concentration of ethanol alone had no effect on the bioassay systems.

[6] = system: thrombin receptor (gastric longitudinal muscle strips); test: Gastric longitudinal muscle (LM) assay, either or both GLM and RLM; format: cell-based
Procedure: LM: Either or both GLM and RLM
as §1, with “Each tissue was challenged twice each in succession at timed intervals with 50 nM carbachol (20 min intervals), 1 μM angiotensin-II (1 h intervals) and 95 μM (60 μg/mL) receptor pentapeptide (P5, SFLLR, SEQ ID NO: 2) (25 min intervals for GLM; 30-35 min for RLM); tissues were washed at 10 and 15 min after the additions of agonists.” left out
Weighed peptide samples were routinely dissolved in 50 mM phosphate buffer, pH 7.4, to yield stock solutions, from which volumes of up to 0.2 mL were added directly to the organ bath; the concentrations of all stock solutions used were verified by quantitative amino acid analysis of aliquots. […]

platelets = settings: reported previously; cited from earlier work

Compound	Activity relative to SFLLR (SEQ ID NO:2) (P-5) (ECcyclic /ECP-5) [1]	Relative potency (REC) GLM [2]	Relative potency (REC) RLM [3]	Recovery of intact peptide from organ bath (HPLC) ([4]; RA organ bath)	Recovery of intact peptide from organ bath (HPLC) ([4]; RLM organ bath)	Relative potency (REC) RA [5]	further results
CC(C)C[C@@H]1NC(=O)[C@H](Cc2ccccc2)NC(=O)[C@H](CO)NC(=O)[C@H](CCCNC(=N)N)NC(=O)[C@H](CC(C)C)NC1=O	not active at this concentration						
CC(C)C[C@H](NC(=O)[C@H](CC(C)C)NC(=O)[C@H](Cc1ccccc1)NC(=O)[C@@H](N)CO)C(=O)N[C@@H](CCCNC(=N)N)C(=O)O [P5, S42 FLLR46, reference compound]		1	1	Quantitative recovery	essentially quantitative recovery	1	
CC(C)C[C@H](NC(=O)[C@H](CC(C)C)NC(=O)[C@H](Cc1ccccc1)NC(=O)[C@@H](N)CO)C(=O)N[C@@H](CCCNC(=N)N)C(N)=O [P5-NH-2, S42 FLLR46 -amide]		0.1	0.2	recovered essentially intact	recovered essentially intact	0.1	Desensitization on repeated administration ([2]; GLM): not; Desensitization [6]: did not; Agonist (relaxation) activity ([5]; RA, precontracted with 0.1 μM noradrenaline): transient relaxation
SFALR							Activity in platelets (platelets): little impact on the activity

The next lines start with results.

Activity relative to SFLLR (SEQ ID NO:2) (P-5) (ECcyclic /ECP-5) [1]	Compound	Relative potency (REC) GLM [2]	Relative potency (REC) RLM [3]	Recovery of intact peptide from organ bath (HPLC) ([4]; RA organ bath)	Recovery of intact peptide from organ bath (HPLC) ([4]; RLM organ bath)	Relative potency (REC) RA [5]	further results
2	CC(C)C[C@@H]1NC(=O)[C@H](Cc2ccccc2)NC(=O)[C@H](CCCNC(=N)N)NC(=O)[C@H](CC(C)C)NC1=O (cyclo(FLLR))						
4	CC(C)C[C@@H]1NC(=O)[C@H](Cc2ccccc2)NC(=O)CNC(=O)[C@H](CCCNC(=N)N)NC(=O)[C@H](CC(C)C)NC1=O (cyclo(FLLRG))						
